Source: PMC11241262, “Unravelling the Antifibrinolytic Mechanism of Action of the 1,2,3-Triazole Derivatives” (International Journal of Molecular Sciences, 2024)

What was measured:
Format in all cases: biochemical
[1] = biological target: T1, plasmin (Homo sapiens, UniProt P00747); test: Plasmin activity assay (Plasmin Inhibitor Screening Assay Kit)
T1 construct: purchased abcam
Procedure: The potential activity of the studied compounds on the catalytic domain of plasmin was evaluated using the Plasmin Inhibitor Screening Assay Kit (abcam), following the manufacturer’s instructions. Briefly, the assay measures the inhibition of plasmin’s activity by the tested compounds through the cleavage of a fluorogenic peptide substrate. The assay was performed in flat-bottom 96-well plates. Plasmin was pre-incubated with different concentrations of the tested compounds for 10 min at RT prior to the addition of the peptide substrate. Plasmin’s activity was then measured by monitoring the increase in fluorescence intensity over time using a microplate reader (Infinite M Plex, Tecan, Männedorf, Switzerland) at an Ex/Em of 360/450 nm, every minute at 37 °C for 10 min. The slope of each sample was determined using the initial and final fluorescence values and their respective time points. (1) Fluorescence slope=RFU2−RFU1/t2−t1
The Relative Plasmin Inhibition was calculated according to the manufacturer’s instructions using a control slope with no compound (enzyme control):(2) Relative Plasmin Inhibition%=SlopeControl−SlopeCompound/SlopeControl×100

[2] = biological target: T2, plasminogen (Homo sapiens, UniProt P00747); test: Plasminogen activation assay (conversion of plasminogen into plasmin by tPA in the absence of fibrin)
T2 construct: purchased abcam
Procedure: The conversion rate of plasminogen to plasmin was assessed using the Tissue-Type Plasminogen Activator Activity Assay Kit (abcam), following the manufacturer’s instructions. The assay measures the ability of tPA to activate plasminogen to plasmin in the presence of the tested compounds using a chromogenic substrate.
A solution of plasminogen and plasmin substrate was mixed with a previously prepared solution of the studied compound and tPA in Tris HCl buffer in a 96-well plate. The final concentration of tPA in each well was 6.8 µg/mL, in a final volume of 100 µL. Absorbance was measured on a microplate reader at a wavelength of 405 nm every minute at 37 °C for 2 h or until the system reached saturation. The absorbance slope of each sample was determined using Equation (3). The Relative Plasminogen Activation (%) for each condition was calculated with Equation (4), using a control without a compound (enzyme control). (4) Relative Plasminogen Activation (%)=SlopeCompound−SlopeControl/SlopeControl×100
Values were fitted to a linear model using MATLAB R2023a (The Math Works Inc., Natick, MA, USA). Concentrations at which each compound was able to increase plasminogen’s conversion by 50% in comparison to the enzyme control were extracted and compared for the three molecules.

[3] = biological target: T3, tissue-type plasminogen activator (tPA) (Homo sapiens, UniProt P00750); test: tPA activity assay (chromogenic substrate)
T3 construct: purchased abcam
Procedure: Tris hydrochloride, 1M, pH = 7.5 solution (Thermo Fisher Scientific, Waltham, MA, USA) was used as buffer. […] Recombinant human Tissue Plasminogen Activator (abcam, Cambridge, UK) served as the source of tPA, and was stored at −20 °C until used.
The assay measures the inhibition of tPA’s catalytic domain by the tested compounds employing a chromogenic substrate. Different concentrations of the studied molecules were incubated with tPA in a 96-well plate at 37 °C for 10 min. […] After, 20 μL of tPA’s substrate was added to each well. […] The slope for each assay was obtained from the initial and final absorbance values and their respective time points, or until complete substrate cleavage was achieved. (3) Absorbance slope=Abs2−Abs1/t2−t1
The Relative tPA Inhibition for each condition was calculated using Equation (2). Then, the Relative tPA Activity (%) was calculated by subtracting the relative tPA inhibition of each concentration from the total activity of the enzyme, obtained from a control without a compound.

T1 sequence (P00747 97-580 limits assumed): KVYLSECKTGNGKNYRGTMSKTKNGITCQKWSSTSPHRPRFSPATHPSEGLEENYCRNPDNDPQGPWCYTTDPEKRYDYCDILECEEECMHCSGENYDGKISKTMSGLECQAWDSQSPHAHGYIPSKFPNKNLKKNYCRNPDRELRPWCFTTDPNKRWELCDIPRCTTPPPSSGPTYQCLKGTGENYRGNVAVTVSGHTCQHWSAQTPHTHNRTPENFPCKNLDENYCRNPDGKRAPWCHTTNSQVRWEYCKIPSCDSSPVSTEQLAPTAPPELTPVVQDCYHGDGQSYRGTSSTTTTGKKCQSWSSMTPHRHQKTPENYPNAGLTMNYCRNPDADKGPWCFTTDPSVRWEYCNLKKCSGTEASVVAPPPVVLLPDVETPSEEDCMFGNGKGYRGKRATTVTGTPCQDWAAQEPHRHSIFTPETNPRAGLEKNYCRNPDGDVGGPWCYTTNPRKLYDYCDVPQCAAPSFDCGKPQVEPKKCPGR
T1 sequence (P00747 581-810 limits assumed): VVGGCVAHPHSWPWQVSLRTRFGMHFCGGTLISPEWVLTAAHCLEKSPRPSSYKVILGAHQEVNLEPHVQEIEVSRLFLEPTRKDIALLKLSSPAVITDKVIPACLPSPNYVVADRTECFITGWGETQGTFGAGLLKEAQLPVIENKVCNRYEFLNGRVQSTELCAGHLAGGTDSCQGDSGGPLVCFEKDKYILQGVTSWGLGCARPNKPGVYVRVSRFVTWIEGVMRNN
T3 sequence (P00750 36-562): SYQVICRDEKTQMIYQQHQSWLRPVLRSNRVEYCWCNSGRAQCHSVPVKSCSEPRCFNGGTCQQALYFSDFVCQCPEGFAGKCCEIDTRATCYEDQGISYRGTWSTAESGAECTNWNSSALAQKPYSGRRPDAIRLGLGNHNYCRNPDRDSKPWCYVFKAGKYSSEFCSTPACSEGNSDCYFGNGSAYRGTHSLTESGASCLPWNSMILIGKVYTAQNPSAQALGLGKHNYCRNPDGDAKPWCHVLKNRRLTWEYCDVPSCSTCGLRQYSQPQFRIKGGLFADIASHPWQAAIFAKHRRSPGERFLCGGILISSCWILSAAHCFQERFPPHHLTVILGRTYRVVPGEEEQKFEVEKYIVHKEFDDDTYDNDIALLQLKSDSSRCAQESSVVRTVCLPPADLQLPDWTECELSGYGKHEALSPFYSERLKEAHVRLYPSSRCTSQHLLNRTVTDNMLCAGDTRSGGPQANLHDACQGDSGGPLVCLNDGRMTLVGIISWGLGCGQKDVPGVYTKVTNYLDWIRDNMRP
T2 sequence (P00747 20-810 limits assumed): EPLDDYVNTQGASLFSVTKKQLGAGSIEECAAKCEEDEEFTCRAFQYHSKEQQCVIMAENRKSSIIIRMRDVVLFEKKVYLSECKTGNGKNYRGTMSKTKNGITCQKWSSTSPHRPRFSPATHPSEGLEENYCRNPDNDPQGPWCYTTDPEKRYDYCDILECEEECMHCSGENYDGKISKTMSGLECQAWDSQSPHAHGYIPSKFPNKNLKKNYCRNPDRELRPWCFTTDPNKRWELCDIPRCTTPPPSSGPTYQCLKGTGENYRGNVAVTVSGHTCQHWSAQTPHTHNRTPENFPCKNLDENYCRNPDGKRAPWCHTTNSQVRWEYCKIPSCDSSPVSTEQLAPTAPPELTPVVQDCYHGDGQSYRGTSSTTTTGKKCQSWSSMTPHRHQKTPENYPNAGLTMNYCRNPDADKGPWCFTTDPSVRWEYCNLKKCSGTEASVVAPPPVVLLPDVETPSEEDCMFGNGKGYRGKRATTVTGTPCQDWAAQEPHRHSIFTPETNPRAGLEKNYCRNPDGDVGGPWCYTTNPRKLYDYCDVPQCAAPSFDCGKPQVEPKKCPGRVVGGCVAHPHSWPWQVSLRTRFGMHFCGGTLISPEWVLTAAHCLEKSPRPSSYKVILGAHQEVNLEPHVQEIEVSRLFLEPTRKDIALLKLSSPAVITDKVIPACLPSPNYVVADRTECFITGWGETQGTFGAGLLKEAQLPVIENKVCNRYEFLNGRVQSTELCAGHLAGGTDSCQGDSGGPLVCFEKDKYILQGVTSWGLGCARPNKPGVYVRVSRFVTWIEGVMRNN

## O=c1[nH]nc(-c2cn(C3CCNCC3)nn2)o1 [compound 5]
[1]; 5 mM, read-out: percentage of plasmin's inhibition
  inhibition at 5000 µM: 6.29%
[1]; 10 mM, read-out: percentage of plasmin's inhibition
  inhibition at 10000 µM: 23.9%
[1]; 15 mM, read-out: percentage of plasmin's inhibition
  inhibition at 15000 µM: 31.3%
[1]; 20 mM, read-out: percentage of plasmin's inhibition
  inhibition at 20000 µM: 65.3%
[1]; inhibition of plasmin's cleavage of a synthetic substrate by 50%
  IC50: 17.9 ± 1.24 mM
[1]; plasma clot lysis IC50 from Bosch-Sanz et al. [43]
  increase of IC50 of plasmin's catalytic domain compared to IC50 in plasma clot lysis assay: 1000 fold
[2]; from concentration enhancing tPA's activity by 50%
  potency relative to TXA in catalyzing plasminogen's activation by tPA: more than 50 times
[2]; plasminogen-tPA isolated system, absence of fibrin
  concentration at which compound increased tPA's activity by 50%: 4.03 µM
[3]; 0.5 mM
  percentage of tPA's activity: 93.70%
[3]; 1 mM
  percentage of tPA's activity: 91.18%
[3]; 5 mM
  percentage of tPA's activity: 88.78%
[3]; 10 mM
  percentage of tPA's activity: 89.39%
[3]; 15 mM
  percentage of tPA's activity: 103.70%
[3]; at the tested concentrations
  activity on tPA's active site: no activity
